# In patent US7795427B2, “Methods for inhibiting osteoclast differentiation, formation, or function and for increasing bone mass” (New York University, priority 2006, dated 2010):
# Entries after “also recorded” stand apart in the source; their conditions may differ.
# What was measured:
# bone marrow cells = test: RANKL-induced osteoclast formation from bone marrow cells (TRAP-positive MNC count); type: cell-based, mouse; settings: for osteoclast formation: M-CSF and RANKL
# Text: FIG. 1. Effect of DPCPX on osteoclast formation by bone marrow cells. […] After 7 days cells were fixed and stained for TRAP, and the number of TRAP-positive MNCs per well was scored. (Similar results were obtained in three independent experiments). Bone marrow cells were isolated from 5- to 8-wk-old C57BL/6 female mice. Femurs and tibiae were aseptically removed and dissected free of adherent soft tissues. The bone ends were cut, and the marrow cavity was flushed out with medium αMEM from one end of the bone using a sterile 21-gauge needle. The bone marrow suspension was carefully agitated with a plastic Pasteur pipette to obtain a single-cell suspension. The cells were washed twice and resuspended (3.75×10^5 cells/ml) in α MEM containing 10% FBS, and this suspension was added to 24-well plates (500 μl/well). To each of these wells an additional 500 μl of medium containing M-CSF (30 ng/ml) and RANKL (30 ng/ml) without or with various concentrations of DPCPX and N6-CPA were added. Cultures were fed every 3 days by replacing 500 μl of culture medium with an equal quantity of fresh medium and reagents. After incubation for 7 days, wells were prepared for tartrate-resistant acid phosphatase (TRAP) staining. The number of TRAP-positive multinucleated cells (MNCs) containing three or more nuclei was scored. Osteoclast formation was evaluated by quantification of Tartrate-Resistant Acid Phosphatase (TRAP)-positive multinucleated cells (MNCs) using a modification of the method of Burstone. […] TRAP is preferentially expressed at high levels in osteoclasts and is considered, especially in the mouse, to be an osteoclast marker. After incubation, cells on wells were washed in PBS, fixed in 4% paraformaldehyde for 10 min, and stained for acid phosphatase in the presence of 0.3 M sodium tartrate (Sigma-Aldrich). The substrate used was napthol AS-BI phosphate (Sigma-Aldrich). Only those cells that were strongly TRAP-positive (dark red) and have more than 3 nuclei were counted by light microscopy.
# murine splenocytes = test: RANKL-induced osteoclast formation by splenocytes (TRAP-positive MNC count); type: cell-based, mouse; settings: for osteoclast formation: M-CSF and RANKL
# Procedure: FIG. 4. Effect of DPCPX on osteoclast formation by Splenocytes. […] After 7 days cells were fixed and stained for TRAP, and the number of TRAP-positive MNCs per well was scored. (Similar results were obtained in three independent experiments). Splenocytes were isolated from 5- to 8-wk-old C57BL/6 female mice aspreviously described with modification. In brief, spleens were putted on top of 100 μm cell strainer in 50 ml falcon, mashed with plunger and rinsed the released cells through the strainer with 8 ml PBS. The nonadherent cells were layered on top of the lymphocyte separation medium. The cells were spin 1500 rpm for 20 minutes. The macrophages/lymphocyte white band was located about 1 cm below the top of the LSM. The PBS was aspirated until 1 ml above the band then 1 ml was removing to 50 ml Falcon including the band. To this Falcon 19 ml PBS was added and spine 1500 rpm for 15 minutes. PBS was removed and 10 ml αMEM was added. The cells were resuspended (3×10^5 cells/ml) in αMEM containing 10% FBS, and this suspension was added to 24-well plates ([…]) as described above. […] TRAP is preferentially expressed at high levels in osteoclasts and is considered, especially in the mouse, to be an osteoclast marker. After incubation, cells on wells were washed in PBS, fixed in 4% paraformaldehyde for 10 min, and stained for acid phosphatase in the presence of 0.3 M sodium tartrate (Sigma-Aldrich). The substrate used was napthol AS-BI phosphate (Sigma-Aldrich). Only those cells that were strongly TRAP-positive (dark red) and have more than 3 nuclei were counted by light microscopy.
# osteoclast precursors = test: Osteoclast formation with DPCPX added at different days of culture; type: cell-based, mouse
# Procedure: FIG. 5. DPCPX Inhibits Osteoclastogenesis by Acting on Osteoclast Precursors. […] After culture for 7 days with DPCPX, cells were stained for TRAP. Results are expressed as the mean±SEM of three cultures per variable. […] TRAP is preferentially expressed at high levels in osteoclasts and is considered, especially in the mouse, to be an osteoclast marker. After incubation, cells on wells were washed in PBS, fixed in 4% paraformaldehyde for 10 min, and stained for acid phosphatase in the presence of 0.3 M sodium tartrate (Sigma-Aldrich). The substrate used was napthol AS-BI phosphate (Sigma-Aldrich). Only those cells that were strongly TRAP-positive (dark red) and have more than 3 nuclei were counted by light microscopy. To determine at which stage DPCPX inhibits osteoclast differentiation, osteoclast precursors were incubated with M-CSF, RANKL and DPCPX was added on day 0, 3 and 6. After culture for a total of 7 days with DPCPX, TRAP-positive multinucleated cells were enumerated.
# PU.1 mRNA = test: RT-PCR of PU.1 mRNA in osteoclast precursors; type: cell-based, mouse; settings: DPCPX 1 μM, M-CSF and RANKL, 7 days
# Text: (§1) FIG. 7. […] I.D. NO: 21); c-Fos antisense [NT]. I.D. NO: 22); PU.1.- sense [NT]. I.D. NO: 23); PU.1 antisense [NT]. […] I.D. NO: 10).
# c-Fos mRNA = test: RT-PCR of c-Fos mRNA in osteoclast precursors; type: cell-based, mouse; settings: DPCPX 1 μM, M-CSF and RANKL, 7 days
# Text: as §1
# [1] = system: RANKL-induced NF-κB signaling; test: RANKL-induced NF-κB signaling in osteoclast precursors (Western blot of cytoplasmic and nuclear fractions); type: cell-based, mouse; set-up: dose or concentration left out as unconfirmed; settings: M-CSF and RANKL
# TRAF6 = TRAF6 level in cells under A1 receptor blockade (other studies, data not shown); type: cell-based; settings: adenosine A1 receptors blocked by DPCPX (data not shown)
# [2] = system: ovariectomized C57BL/6 mice; test: Bone loss due to ovariectomy (microCT); type: in vivo, mouse; settings: OVX C57BL/6 mice, DPCPX 50 mg/kg/d oral in water, 5 weeks
# Procedure: FIG. 12. Effects of the A1R Antagonist DPCPX on Bone Loss Due to Ovariectomy. […] Data are expressed as percent change relative to sham-operated vehicle-treated control mice. 6 Week old C57bl/6 female mice received ovariectomy or a sham procedure in which the ovaries were exteriorized but not removed. Mice were sacrificed 5 weeks after the surgical procedure. Mice were treated with either water alone or DPCPX dissolved in water and adjusted, based on the weight of the animals, to a dose of 50 mg/kg/d. Femoral μCT was measured as described (Hildebrand […] new method for the model-independent assessment of thickness in three-dimensional images. J Microsc 1997; 185:67-75) by using a MS-8 (MS-8, GE Healthcare, London, Ontario, Canada) at 18 μm isotropic resolution-scans calibrated by air, water and a mineral standard material phantom/Parker algorithm for digital reconstruction.
# [3] = M-CSF and DPCPX without RANKL (data not shown)
# [4] = increasing concentrations of DPCPX added day 0 with M-CSF and RANKL (30 ng/ml each), 7 days
# [5] = DPCPX 3 days (per FIG. 8 legend)
smiles,measurement,setting,value
"CCCn1c(=O)c2[nH]c(C3CCCC3)nc2n(CCC)c1=O [DPCPX, 8-cyclopentyl-1,3-dipropylxanthine]",osteoclast formation,"bone marrow cells; DPCPX 1 nM, 7 days",significantly inhibit
same,osteoclast formation,"bone marrow cells; DPCPX 1 μM, 7 days",complete inhibition
same,TRAP-positive cells in the absence of RANKL,bone marrow cells; [3],no TRAP-positive cells were seen
same,number of TRAP-positive cells,bone marrow cells; [4],strikingly inhibited the number of TRAP-positive cells in a dose-dependent manner
same,osteoclast formation,"murine splenocytes; DPCPX 1 nM, 7 days",significantly inhibited
same,osteoclast formation,"murine splenocytes; DPCPX 1 μM, 7 days",almost complete inhibition
same,TRAP-positive cells in the absence of RANKL,murine splenocytes; [3],no TRAP-positive cells were seen
same,number of TRAP-positive multinucleated cells,murine splenocytes; [4],strikingly diminished the number of TRAP-positive multinucleated cells in a dose-dependent manner
same,osteoclast formation,"osteoclast precursors; DPCPX added on day 0, total culture 7 days",inhibited
same,osteoclast formation,"osteoclast precursors; DPCPX addition delayed (day 3, day 6), total culture 7 days",inhibition decreased
same,PU.1 mRNA expression,PU.1 mRNA,does not affect
same,c-Fos mRNA expression,c-Fos mRNA,does not affect
same,cytoplasmic p50 and p65,[1]; [5],accumulate in the cytoplasm
same,nuclear translocation of p50 and p65,[1]; [5],totally prevents
same,RANKL-induced degradation of IκB,[1]; DPCPX treatment for 3 days (per FIG. 8 legend),inhibited
same,TRAF6 in the cell,TRAF6,is lost from the cell
same,bone mass / trabecular bone volume (bone volume/total volume) following ovariectomy,[2],did not lose bone mass; also recorded: prevents ovariectomy-induced bone loss
